In the experiment the target is T1, hTLR9 (Homo sapiens, UniProt Q9NR96).
T1 sequence (Q9NR96 26-1032): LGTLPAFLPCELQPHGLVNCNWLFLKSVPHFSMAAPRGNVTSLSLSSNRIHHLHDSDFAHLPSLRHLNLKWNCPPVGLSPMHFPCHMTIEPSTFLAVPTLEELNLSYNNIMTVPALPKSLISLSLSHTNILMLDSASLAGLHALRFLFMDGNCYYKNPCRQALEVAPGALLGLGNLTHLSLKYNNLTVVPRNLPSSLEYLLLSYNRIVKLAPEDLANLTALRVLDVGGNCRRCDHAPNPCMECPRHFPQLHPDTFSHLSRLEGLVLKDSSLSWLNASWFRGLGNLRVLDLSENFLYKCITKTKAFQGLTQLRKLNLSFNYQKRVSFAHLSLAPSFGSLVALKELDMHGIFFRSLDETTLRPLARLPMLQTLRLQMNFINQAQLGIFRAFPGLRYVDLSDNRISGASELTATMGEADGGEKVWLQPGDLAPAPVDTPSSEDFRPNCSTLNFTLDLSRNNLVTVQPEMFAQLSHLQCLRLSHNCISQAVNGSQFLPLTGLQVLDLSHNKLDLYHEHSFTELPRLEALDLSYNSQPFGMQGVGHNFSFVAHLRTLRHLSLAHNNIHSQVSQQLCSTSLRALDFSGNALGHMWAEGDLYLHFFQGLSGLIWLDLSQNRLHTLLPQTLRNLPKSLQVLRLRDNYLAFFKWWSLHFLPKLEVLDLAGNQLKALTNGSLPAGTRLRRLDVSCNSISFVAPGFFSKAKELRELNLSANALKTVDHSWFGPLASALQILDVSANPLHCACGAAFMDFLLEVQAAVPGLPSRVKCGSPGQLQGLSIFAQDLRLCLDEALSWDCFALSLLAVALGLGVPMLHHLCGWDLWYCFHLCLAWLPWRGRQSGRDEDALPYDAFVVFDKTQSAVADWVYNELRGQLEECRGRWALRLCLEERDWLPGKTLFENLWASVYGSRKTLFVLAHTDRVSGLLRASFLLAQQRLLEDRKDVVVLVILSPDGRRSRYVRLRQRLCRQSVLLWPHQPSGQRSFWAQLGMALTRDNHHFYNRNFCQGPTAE
Briefly: HEK293-Blue-hTLR-9 cells assay (SEAP reporter, ODN2006 stimulation). The experiment is classed as cell-based. Set-up: host or cells: HEK293 (HEK-Blue hTLR9). The conditions noted are these: HEK293-Blue-hTLR9 cells, ODN2006, 20 hrs; read-out: HEK/hTLR9 IC50. The procedure, abridged: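 Antagonism read as lowered SEAP reporter absorbance (620–655 nm, QUANTI-Blue, 2 h, 37 °C) in supernatants. Before that, ODN2006-stimulated HEK293-Blue cells stably expressing human TLR9 were exposed to compound dilutions at 1% final DMSO for 20 h at 37 °C.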
In the case of `C[C@@H]1CN(c2ccc(C#N)c3ncccc23)C[C@H](CN2CCN(c3cccc(N4CCNCC(O)C4)n3)CC2)O1` (stereo partly drawn) [Example 41, 5-[(2S,6R)-2-[[4-[6-(6-hydroxy-1,4-diazepan-1-yl)-2-pyridyl]piperazin-1-yl]methyl]-6-methyl-morpholin-4-yl]quinoline-8-carbonitrile], the IC50 is 150 nM.

On to `Cc1cc(N2CCN(C[C@H]3CN(c4ccc(C#N)c5ncccc45)C[C@@H](C)O3)CC2)nc(N2CC(N)C(F)(F)C2)n1` (stereo partly drawn) [Example 63, 5-[(2S,6R)-2-[[4-[2-(4-amino-3,3-difluoro-pyrrolidin-1-yl)-6-methyl-pyrimidin-4-yl]piperazin-1-yl]methyl]-6-methyl-morpholin-4-yl]quinoline-8-carbonitrile], for which the IC50 is 246 nM.

For `Cc1cc(N2CCN(C[C@H]3CN(c4ccc(C#N)c5ncccc45)C[C@@H](C)O3)CC2)nc(N2CCNCC(O)C2)n1` (stereo partly drawn) [Example 66, 5-[(2S,6R)-2-[[4-[2-(6-hydroxy-1,4-diazepan-1-yl)-6-methyl-pyrimidin-4-yl]piperazin-1-yl]methyl]-6-methyl-morpholin-4-yl]quinoline-8-carbonitrile], the IC50 was found to be 32 nM.

With `C[C@@H]1CN(c2cc(=O)n(C)c3ncccc23)C[C@H](CN2CC(c3ccc(N4CC(F)[C@H](N)C4)cc3)C2)O1` (stereo in doubt) [Example 174, 4-[(2S,6R)-2-[[3-[4-[(3R,4R)-3-amino-4-fluoro-pyrrolidin-1-yl]phenyl]azetidin-1-yl]methyl]-6-methyl-morpholin-4-yl]-1-methyl-1,8-naphthyridin-2-one], the IC50 amounted to 86 nM.

Take `C[C@@H]1CN(c2ccc(C#N)c3ncccc23)C[C@H](CN2CCN(c3cccc(N4CCNCC4)n3)CC2)O1` [Example 10, 5-[(2R,6S)-2-methyl-6-[[4-(6-piperazin-1-yl-2-pyridyl)piperazin-1-yl]methyl]morpholin-4-yl]quinoline-8-carbonitrile]: the IC50 was found to be 105 nM.

As for `CO[C@H]1CN(c2nccc(N3CCN(C[C@H]4CN(c5ccc(C#N)c6ncccc56)C[C@@H](C)O4)CC3)n2)C[C@@H]1N` [Example 26, 5-[(2S,6R)-2-[[4-[2-trans-(3-amino-4-methoxy-pyrrolidin-1-yl)pyrimidin-4-yl]piperazin-1-yl]methyl]-6-methyl-morpholin-4-yl]quinoline-8-carbonitrile], the IC50 was determined as 32 nM.

`C[C@@H]1CN(c2ccc(C#N)n3ncc(F)c23)C[C@H](CN2CCN(c3ccc([C@@H]4CNCCO4)cc3)CC2)O1` [Example 177, 3-fluoro-4-[(2R,6S)-2-methyl-6-[[4-[4-[(2R)-morpholin-2-yl]phenyl]piperazin-1-yl]methyl]morpholin-4-yl]pyrazolo[1,5-a]pyridine-7-carbonitrile]: the IC50 stood at 98 nM.

For `C[C@@H]1CN(c2ccc(C#N)c3ncccc23)C[C@H](CN2CCN(c3ccnc(N4CCN(C(=O)CN(C)C)CC4)n3)CC2)O1` [Example 32, 5-[(2S,6R)-2-[[4-[2-[4-[2-(dimethylamino)acetyl]piperazin-1-yl]pyrimidin-4-yl]piperazin-1-yl]methyl]-6-methyl-morpholin-4-yl]quinoline-8-carbonitrile], the IC50 is 73 nM.

Consider `C[C@@H]1CN(c2ccc(C#N)c3ncccc23)C[C@H](CN2CCN(c3cncc(N4CCNCC4)c3)CC2)O1` [Example 7, 5-[(2R,6S)-2-methyl-6-[[4-(5-piperazin-1-yl-3-pyridyl)piperazin-1-yl]methyl]morpholin-4-yl]quinoline-8-carbonitrile], for which the IC50 stood at 51 nM.

Take `C[C@@H]1CN(c2ccc(C#N)c3ncccc23)C[C@H](CN2CCN(c3cccc(C4CNCCO4)c3)CC2)O1` (stereo partly drawn) [Example 62, 5-[(2R,6S)-2-methyl-6-[[4-(3-morpholin-2-ylphenyl)piperazin-1-yl]methyl]-morpholin-4-yl]quinoline-8-carbonitrile]: the IC50 came to 92 nM.

Turning to `C[C@@H]1CN(c2ccc(C#N)n3ncc(F)c23)C[C@H](CN2CCN(c3ccc(N4CC5(CCN5)C4)nc3)CC2)O1` [Example 179, 4-[(2S,6R)-2-[[4-[6-(1,6-diazaspiro[3.3]heptan-6-yl)-3-pyridyl]piperazin-1-yl]methyl]-6-methyl-morpholin-4-yl]-3-fluoro-pyrazolo[1,5-a]pyridine-7-carbonitrile], the IC50 was 157 nM.

For the compound `C[C@@H]1CN(c2ccc(C#N)c3ncccc23)C[C@H](CN2CCN(c3nccc(N4CCNCC4)n3)CC2)O1` [Example 14, 5-[(2R,6S)-2-methyl-6-[[4-(4-piperazin-1-ylpyrimidin-2-yl)piperazin-1-yl]methyl]morpholin-4-yl]quinoline-8-carbonitrile], the IC50 came to 32 nM.

Consider `C[C@@H]1CN(c2ccc(C#N)c3ncccc23)C[C@H](CN2CCN(c3ccc(N4CCNCC4)nc3)CC2)O1` [Example 13, 5-[(2R,6S)-2-methyl-6-[[4-(6-piperazin-1-yl-3-pyridyl)piperazin-1-yl]methyl]morpholin-4-yl]quinoline-8-carbonitrile], for which the IC50 amounted to 142 nM.

Regarding `C[C@@H]1CN(c2ccc(C#N)c3ncccc23)C[C@H](CN2CCN(c3cccc(N4CCN(C)CC4)n3)CC2)O1` [Example 33, 5-[(2R,6S)-2-methyl-6-[[4-[6-(4-methylpiperazin-1-yl)-2-pyridyl]piperazin-1-yl]methyl]morpholin-4-yl]quinoline-8-carbonitrile], the IC50 turned out to be 116 nM.

Turning to `COc1cnc(N2CCNCC2)nc1N1CCN(C[C@H]2CN(c3ccc(C#N)c4ncccc34)C[C@@H](C)O2)CC1` [Example 48, 5-[(2S,6R)-2-[[4-(5-methoxy-2-piperazin-1-yl-pyrimidin-4-yl)piperazin-1-yl]methyl]-6-methyl-morpholin-4-yl]quinoline-8-carbonitrile], the IC50 was found to be 121 nM.

Consider `C[C@@H]1CN(c2ccc(C#N)c3ncccc23)C[C@H](CN2CCC(C#N)(c3ccc(N4CCNCC4)cc3)CC2)O1` [Example 11, 5-[(2S,6R)-2-[[4-cyano-4-(4-piperazin-1-ylphenyl)-1-piperidyl]methyl]-6-methyl-morpholin-4-yl]quinoline-8-carbonitrile], for which the IC50 came out at 92 nM.

Take `Cc1cc(N2CCN(C[C@H]3CN(c4ccc(C#N)c5ncccc45)C[C@@H](C)O3)CC2)nc(N2CCOCC(N)C2)n1` (stereo partly drawn) [Example 56, 5-[(2S,6R)-2-[[4-[2-(6-amino-1,4-oxazepan-4-yl)-6-methyl-pyrimidin-4-yl]piperazin-1-yl]methyl]-6-methyl-morpholin-4-yl]quinoline-8-carbonitrile]: the IC50 was determined as 34 nM.

Consider `C[C@@H]1CN(c2ccc(C#N)c3ncccc23)C[C@H](CN2CCN(c3nc(N4CCNCC4)ncc3F)CC2)O1` [Example 45, 5-[(2S,6R)-2-[[4-(5-fluoro-2-piperazin-1-yl-pyrimidin-4-yl)piperazin-1-yl]methyl]-6-methyl-morpholin-4-yl]quinoline-8-carbonitrile], for which the IC50 worked out at 188 nM.

In the case of `C[C@@H]1CN(c2ccc(C#N)n3ncc(F)c23)C[C@H](CN2CCN(c3ccc(C4(C)CNCCO4)cc3)CC2)O1` (stereo partly drawn) [Example 185, 3-fluoro-4-[(2R,6S)-2-methyl-6-[[4-[4-(2-methylmorpholin-2-yl)phenyl]piperazin-1-yl]methyl]morpholin-4-yl]pyrazolo[1,5-a]pyridine-7-carbonitrile], the IC50 came to 186 nM.

Turning to `C[C@@H]1CN(c2ccc(C#N)c3ncccc23)C[C@H](CN2CCN(c3ncc(N4CCNCC4)cn3)CC2)O1` [Example 17, 5-[(2R,6S)-2-methyl-6-[[4-(5-piperazin-1-ylpyrimidin-2-yl)piperazin-1-yl]methyl]morpholin-4-yl]quinoline-8-carbonitrile], the IC50 stood at 186 nM.

With `CO[C@H]1CN(c2nc(C)cc(N3CCN(C[C@H]4CN(c5ccc(C#N)c6ncccc56)C[C@@H](C)O4)CC3)n2)C[C@H]1N` [Example 60, 5-[(2R,6S)-2-methyl-6-[[4-[6-methyl-2-[cis-3-amino-4-methoxy-pyrrolidin-1-yl]pyrimidin-4-yl]piperazin-1-yl]methyl]morpholin-4-yl]quinoline-8-carbonitrile], the IC50 came out at 32 nM.

For the compound `C[C@@H]1CN(c2ccc(C#N)c3ncccc23)C[C@H](CN2CCN(c3ccnc(N4CCN(C(=O)[C@@H]5CCCN5)CC4)n3)CC2)O1` [Example 31, 5-[(2R,6S)-2-methyl-6-[[4-[2-[4-[(2S)-pyrrolidine-2-carbonyl]piperazin-1-yl]pyrimidin-4-yl]piperazin-1-yl]methyl]morpholin-4-yl]quinoline-8-carbonitrile], the IC50 was 46 nM.
